Reference: US10144742B2 (Millennium Pharmaceuticals, Inc., priority 2014, dated 2018)
Read-outs that look alike come from different tables or passages of the source.

Columns and labels:
PC3 cells = assay: PC3 growth inhibition (Cell-titer glo, 72 hours); type: cell-based; conditions: Homo sapiens, PC-3, PC3 cells, 72 hours, Cell-titer glo, read-out: Percent Inhibition (PC3 growth inhibition); for inhibition at 1.667 µM: compound concentration 1.667 μM; for inhibition at 1 µM: compound concentration 1 μM
In short: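 Compounds in AIM serum-free medium were applied for 72 h at 37 °C, 5% CO2 to PC3 cells plated overnight from RPMI1640 culture. Luminescence after 10 min CellTiter-Glo, normalised to DMSO, gave % viability at 1 μM or 1.667 μM, or GI50/LD50.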

hNAMPT protein = hNAMPT protein (Homo sapiens (Human), UniProt P43490); assay: NAMPT enzyme assay (TR-FRET/HTRF, BodiPY ligand, anti 6His-Tb); type: binding; conditions: for inhibition at 1 µM: read-out: Percent Inhibition; for IC50: read-out: IC50
hNAMPT protein, sequence (P43490 whole entry): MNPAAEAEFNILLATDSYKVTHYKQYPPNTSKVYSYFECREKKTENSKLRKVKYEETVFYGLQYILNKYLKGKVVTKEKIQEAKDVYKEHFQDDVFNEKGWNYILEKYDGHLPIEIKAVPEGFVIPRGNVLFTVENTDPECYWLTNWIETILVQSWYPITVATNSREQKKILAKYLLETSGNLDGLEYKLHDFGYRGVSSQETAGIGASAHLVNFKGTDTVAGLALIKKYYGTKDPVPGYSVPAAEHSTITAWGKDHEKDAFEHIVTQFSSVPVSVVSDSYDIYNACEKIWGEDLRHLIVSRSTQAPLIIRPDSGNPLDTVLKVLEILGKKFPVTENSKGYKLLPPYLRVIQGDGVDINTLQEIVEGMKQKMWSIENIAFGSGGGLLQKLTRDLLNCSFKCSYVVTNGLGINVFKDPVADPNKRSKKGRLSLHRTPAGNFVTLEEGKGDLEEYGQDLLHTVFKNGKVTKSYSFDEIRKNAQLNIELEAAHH
In short: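 Compound or DMSO was incubated for 1 h at room temperature, protected from light, with BodiPY ligand and hNAMPT labelled by terbium anti-6His antibody. The 520 nm to 486 nm emission ratio after 320 nm excitation gave inhibition versus vehicle, from which concentration-response curves yielded IC50.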

[1] = NAMPT inhibition at compound concentration 1 μM
[2] = NAMPT inhibition, IC50 range class

| Structure (SMILES) | inhibition at 1.667 µM (PC3 cells) | inhibition at 1 µM (hNAMPT protein; [1]) | IC50 (hNAMPT protein; [2]) | IC50 (hNAMPT protein; NAMPT IC50 range class) | inhibition at 1 µM (hNAMPT protein; compound concentration 1 μM) | inhibition at 1 µM (PC3 cells) |
| --- | --- | --- | --- | --- | --- | --- |
| N#Cc1cccc(-c2nc3cc(C(=O)NCCCc4ncc[nH]4)ccc3nc2-c2ccc(F)cc2)c1 [Compound I-458, 3-(3-cyanophenyl)-2-(4-fluorophenyl)-N-[3-(1H-imidazol-2-yl)propyl]quinoxaline-6-carboxamide] | 2% | 81% | 0.1 to 0.5 µM | – | – | – |
| O=C(NCCCc1ncc[nH]1)c1ccc2nc(-n3ccnc3)c(-c3ccc(F)cc3)nc2c1 [Compound I-324, 3-(4-fluorophenyl)-2-(1H-imidazol-1-yl)-N-[3-(1H-imidazol-2-yl)propyl]quinoxaline-6-carboxamide] | 3% | – | – | 0.5 to 1 µM | 57% | – |
| COC1CCN(c2nc3ccc(C(=O)NCCCc4ncc[nH]4)cc3nc2-c2ccc(F)cc2)CC1 [Compound I-78, 3-(4-fluorophenyl)-N-[3-(1H-imidazol-2-yl)propyl]-2-(4-methoxypiperidin-1-yl)quinoxaline-6-carboxamide] | 2% | – | – | < 0.1 µM | > 99% | – |
| O=C(NCCc1cnc2ccccn12)c1ccc2nc(-c3ccc(F)cc3)c(-c3ccc(F)cc3)nc2c1 [Compound I-302, 2,3-bis(4-fluorophenyl)-N-[2-(imidazo[1,2-a]pyridin-3-yl)ethyl]quinoxaline-6-carboxamide] | – | – | – | 0.5 to 1 µM | 63% | 87% |
| O=C(NCCCn1ccnc1)c1ccc2nc(N3Cc4ccccc4C3)c(-c3ccccc3)nc2c1 [Compound I-11, 2-(1,3-dihydro-2H-isoindol-2-yl)-N-[3-(1H-imidazol-1-yl)propyl]-3-phenylquinoxaline-6-carboxamide] | – | – | – | 0.1 to 0.5 µM | 85% | -7% |
| C#Cc1cccc(-c2nc3cc(C(=O)NCCCc4ncc[nH]4)ccc3nc2-c2ccc(F)cc2)c1 [Compound I-425, 3-(3-ethynylphenyl)-2-(4-fluorophenyl)-N-[3-(1H-imidazol-2-yl)propyl]quinoxaline-6-carboxamide] | 3% | 87% | 0.1 to 0.5 µM | – | – | – |
| O=C(NCCCc1ncc[nH]1)c1ccc2nc(C3CC3)c(-c3ccc(F)cc3)nc2c1 [Compound I-357, 2-cyclopropyl-3-(4-fluorophenyl)-N-[3-(1H-imidazol-2-yl)propyl]quinoxaline-6-carboxamide] | 1% | – | – | 0.1 to 0.5 µM | 83% | – |
| O=C(NCCCc1ncc[nH]1)c1ccc2nc(-c3ccc(Cl)cc3)c(-c3ccc(Cl)cc3)nc2c1 [Compound I-315, 2,3-bis(4-chlorophenyl)-N-[3-(1H-imidazol-2-yl)propyl]quinoxaline-6-carboxamide] | 1% | – | – | 0.1 to 0.5 µM | 88% | – |
| O=C(NCCCn1ccnc1)c1ccc2nc(NCc3ccccc3)c(-c3ccccc3)nc2c1 [Compound I-62, 2-(benzylamino)-N-[3-(1H-imidazol-1-yl)propyl]-3-phenylquinoxaline-6-carboxamide] | – | – | – | 2 to 10 µM | 24% | -4% |
| O=C(NCCCc1nccs1)c1ccc2nc(N3CCC(N4CCOCC4)CC3)c(-c3ccc(F)cc3)nc2c1 [Compound I-42, 3-(4-fluorophenyl)-2-[4-(morpholin-4-yl)piperidin-1-yl]-N-[3-(1,3-thiazol-2-yl)propyl]quinoxaline-6-carboxamide] | > 99% | – | – | < 0.1 µM | 96% | – |
| O=C(NCCc1ccccn1)c1ccc2nc(-c3ccc(F)cc3)c(-c3ccc(F)cc3)nc2c1 [Compound I-169, 2,3-bis(4-fluorophenyl)-N-[2-(pyridin-2-yl)ethyl]quinoxaline-6-carboxamide] | – | – | – | 1 to 2 µM | 36% | 93% |
| COc1cccc(-c2nc3ccc(C(=O)NCCCn4ccnc4)cc3nc2-c2cccc(OC)c2)c1 [Compound I-52, N-[3-(1H-imidazol-1-yl)propyl]-2,3-bis(3-methoxyphenyl)quinoxaline-6-carboxamide] | – | – | – | < 0.1 µM | 103% | 0% |
| O=C(NCCCc1ncc[nH]1)c1ccc2nc(C3CCOCC3)c(-c3ccc(F)cc3)nc2c1 [Compound I-366, 3-(4-fluorophenyl)-N-[3-(1H-imidazol-2-yl)propyl]-2-(tetrahydro-2H-pyran-4-yl)quinoxaline-6-carboxamide] | 1% | – | – | 0.5 to 1 µM | 53% | – |
| O=C(NCc1ccc2[nH]ncc2c1)c1ccc2nc(N3CCOCC3)c(-c3ccc(F)cc3)nc2c1 [Compound I-16, 3-(4-fluorophenyl)-N-(1H-indazol-5-ylmethyl)-2-(morpholin-4-yl)quinoxaline-6-carboxamide] | 39% | – | – | 0.1 to 0.5 µM | 84% | – |
| Cc1c(F)cc(-c2nc3cc(C(=O)NCCCc4ncc[nH]4)ccc3nc2-c2ccc(F)cc2)cc1F [Compound I-306, 3-(3,5-difluoro-4-methylphenyl)-2-(4-fluorophenyl)-N-[3-(1H-imidazol-2-yl)propyl]quinoxaline-6-carboxamide] | 3% | – | – | 0.5 to 1 µM | 60% | – |
| O=C(NCCCn1ccnc1)c1ccc2nc(-c3ccccc3)c(N3CCCC3)nc2c1 [Compound I-124, N-[3-(1H-imidazol-1-yl)propyl]-2-phenyl-3-(pyrrolidin-1-yl)quinoxaline-6-carboxamide] | – | – | – | 1 to 2 µM | 38% | 27% |
| Cn1ccnc1CCNC(=O)c1ccc2nc(-c3ccc(F)cc3)c(-c3ccc(F)cc3)nc2c1 [Compound I-151, 2,3-Bis(4-fluorophenyl)-N-[2-(1-methyl-1H-imidazol-2-yl)ethyl]quinoxaline-6-carboxamide] | – | – | – | 0.1 to 0.5 µM | 79% | 96% |
| Cn1cc(-c2nc3cc(C(=O)NCCCn4ccnc4)ccc3nc2-c2ccccc2)cn1 [Compound I-167, N-[3-(1H-imidazol-1-yl)propyl]-3-(1-methyl-1H-pyrazol-4-yl)-2-phenylquinoxaline-6-carboxamide] | – | – | – | 2 to 10 µM | 24% | 1% |
| O=C(NCCCn1ccnc1)c1ccc2nc(-c3ccccc3)c(C3=CCOCC3)nc2c1 [Compound I-162, 3-(3,6-dihydro-2H-pyran-4-yl)-N-[3-(1H-imidazol-1-yl)propyl]-2-phenylquinoxaline-6-carboxamide] | – | – | – | 1 to 2 µM | 44% | 1% |
| COc1cc(F)cc(-c2nc3cc(C(=O)NCCCc4ncc[nH]4)ccc3nc2-c2ccc(F)cc2)c1 [Compound I-512, 3-(3-fluoro-5-methoxyphenyl)-2-(4-fluorophenyl)-N-[3-(1H-imidazol-2-yl)propyl]quinoxaline-6-carboxamide] | 2% | 92% | < 0.1 µM | – | – | – |
| CCCOc1nc2ccc(C(=O)NCCCc3ncc[nH]3)cc2nc1-c1ccc(F)cc1 [Compound I-371, 3-(4-fluorophenyl)-N-[3-(1H-imidazol-2-yl)propyl]-2-propoxyquinoxaline-6-carboxamide] | 3% | – | – | < 0.1 µM | 97% | – |
| Cc1noc(C)c1COc1nc2ccc(C(=O)NCCCc3ncc[nH]3)cc2nc1-c1ccc(F)cc1 [Compound I-446, 2-[(3,5-dimethylisoxazol-4-yl)methoxy]-3-(4-fluorophenyl)-N-[3-(1H-imidazol-2-yl)propyl]quinoxaline-6-carboxamide] | 2% | > 99% | < 0.1 µM | – | – | – |
| O=C(NCCCc1ncc[nH]1)c1ccc2nc(N3CCOCC3)c(-c3ccc(F)cc3)nc2c1 [Compound I-39, 3-(4-fluorophenyl)-N-[3-(1H-imidazol-2-yl)propyl]-2-(morpholin-4-yl)quinoxaline-6-carboxamide] | 2% | – | – | < 0.1 µM | 97% | – |
| O=C(NCCCn1ccnc1)c1ccc2nc(N3CCCC(O)C3)c(-c3ccccc3)nc2c1 (stereo not drawn) [Compound I-100, 2-(3-hydroxypiperidin-1-yl)-N-[3-(1H-imidazol-1-yl)propyl]-3-phenylquinoxaline-6-carboxamide] | – | – | – | 0.1 to 0.5 µM | 85% | -7% |
| O=C(NCCCc1ncc[nH]1)c1ccc2nc(-c3ccc(F)cc3)c(-c3cccc(C(F)(F)F)c3)nc2c1 [Compound I-328, 2-(4-fluorophenyl)-N-[3-(1H-imidazol-2-yl)propyl]-3-[3-(trifluoromethyl)phenyl]quinoxaline-6-carboxamide] | 3% | – | – | 0.1 to 0.5 µM | 84% | – |
| O=C(NCCCc1ncc[nH]1)c1ccc2nc(-n3cncn3)c(-c3ccc(F)cc3)nc2c1 [Compound I-418] | 3% | 60% | 0.5 to 1 µM | – | – | – |
| O=C(NCCCc1ncc[nH]1)c1ccc2nc(OCC3CCCC3)c(-c3ccc(F)cc3)nc2c1 [Compound I-500, 2-(cyclopentylmethoxy)-3-(4-fluorophenyl)-N-[3-(1H-imidazol-2-yl)propyl]quinoxaline-6-carboxamide] | 3% | 93% | < 0.1 µM | – | – | – |
| O=C(NCCCn1ccnc1)c1ccc2nc(N3CC4CC3CO4)c(-c3ccccc3)nc2c1 (stereo not drawn) [Compound I-37, N-[3-(1H-imidazol-1-yl)propyl]-2-(2-oxa-5-azabicyclo[2.2.1]hept-5-yl)-3-phenylquinoxaline-6-carboxamide] | – | – | – | 0.5 to 1 µM | 65% | -6% |
